Test results as given in patent US6531140B2, “Anti-irritant compositions containing a cyclic nucleotide” (E-L Management, priority 1999, dated 2003).

Experiments:
[1] = tested on: skin irritation caused by Balsam of Peru; assay: Balsam of Peru skin irritation test on ventral forearms of panelists (skin redness, Minolta Chromameter); assay type: in vivo, human; conditions: topical; for Percent Reduction in the onset of irritation: Example 2, before Balsam of Peru
Source text: Eight female volunteer panelists between the ages of 21 and 55 having a history of skin sensitivity to Balsam of Peru are chosen for a study. […] The panelists have a history of skin reactivity to Balsam of Peru which manifests itself in the form of an immediate urticaria reaction. The test sites on the ventral forearms of the panelists are devoid of warts, nevi, moles, sunburn, suntan, scars and active dermal lesions. Pregnant or lactating volunteers are excluded. […] The composition is given time, about 20 minutes, to absorb into the skin on the forearm. Next, an irritant, Balsam of Peru, 8.00 percent in petrolatum, is applied to the test area of the skin and when redness appears within 30 to 40 minutes after application, Balsam of Peru is wiped off with a wet towel. Skin redness is measured with the Minolta Chromameter. Skin irritation is measured in terms of an increase in skin redness measured using a Minolta Chromameter and compared with a negative and a positive control. The positive control is the color of the skin treated solely with Balsam of Peru, and the negative control is the color of the skin treated with a cola […] solution in 10% hydroalcohol (1:1).

cGMP-PDE = conditions: in vitro; cited from earlier work
[2] = tested on: inflammatory parameters in atopic dermatitis; conditions: in vivo; cited from earlier work
cAMP-PDE = conditions: in vitro; cited from earlier work

Row | SMILES | Percent Reduction in the onset of irritation ([1]; 1% concentration) [%] | further results
1 | CC(C)Cn1c(=O)n(C)c(=O)c2[nH]cnc21 [IBMX, 3-isobutyl 1-methyl xanthine] | 66 | –
2 | Cn1c(=O)c2c(ncn2C)n(C)c1=O [Caffeine, caffeine] | 45 | –
3 | COc1ccc(C2CNC(=O)C2)cc1OC1CCCC1 (centres unmarked) [Rolipram] | 69 | –
4 | O=c1[nH]cnc2c1ncn2[C@@H]1O[C@@H]2COP(=O)(O)O[C@H]2[C@H]1O [cIMP, cyclic IMP] | 42 | –
5 | Nc1nc2c(ncn2[C@H]2C[C@@H]3OP(=O)(O)OC[C@H]3O2)c(=O)[nH]1 [2′-deoxy cGMP] | – | inhibition of cGMP-PDE (cGMP-PDE): specific and potent in vitro inhibitors
6 | COc1ccc(C2CNC(=O)NC2)cc1O[C@H]1C[C@@H]2CC[C@H]1C2 [CP80,633] | – | reduction of inflammatory parameters [2]: significant reduction of inflammatory parameters
7 | CCCCOc1cc(CC2CNC(=O)N2)ccc1OC (centres unmarked) [Ro-12-1724] | 57 | –
8 | Nc1ncnc2c1ncn2C1CC2OP(=O)(O)OCC2O1 (centres unmarked) [2′-deoxy cAMP, 2′-deoxy adenosine 3 ′5′ cyclic monophosphate] | – | reduction in the onset of irritation ([1]; Example 1, 0.5 percent in magnesium buffer, applied about 20 minutes before 8.00 percent Balsam of Peru in petrolatum, eight female panelists): 74%; Percent Reduction in the onset of irritation ([1]; 0.5% concentration): 71%; inhibition of cAMP-PDE (cAMP-PDE): specific and potent in vitro inhibitors
9 | CC(=O)CCCCn1c(=O)c2c(ncn2C)n(C)c1=O [Pentoxifylline, pentoxifylline] | 50 | –
